Active and inactive are the calls of the source.
Experiments:
[1] = inhibitors of intracellular T. cruzi replication, confirmation, NIH3T3 host cells, beta-gal luminescence (AID 2044); format: functional, cell-based;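 note: intracellular parasites grown in NIH/3T3 mouse fibroblasts as host cells; luminescent beta-galactosidase reporter signal from transgenic T. cruzi replicating inside host cells; inhibitors lower the luminescence signal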
[2] = cytotoxicity toward NIH3T3 fibroblasts, dose response, counter-screen, cell-based, ATP luminescence, mouse fibroblasts (AID 2010); format: functional;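 note: cells exposed to compound for about 90 hours before reading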
[3] = target: T1, Mannose-6-phosphate isomerase (Homo sapiens, UniProt P34949); experiment: human PMI inhibitors, high substrate, primary screen, biochemical, fluorescence intensity, high mannose 6-phosphate (AID 1220)
T1 sequence (P34949 whole entry): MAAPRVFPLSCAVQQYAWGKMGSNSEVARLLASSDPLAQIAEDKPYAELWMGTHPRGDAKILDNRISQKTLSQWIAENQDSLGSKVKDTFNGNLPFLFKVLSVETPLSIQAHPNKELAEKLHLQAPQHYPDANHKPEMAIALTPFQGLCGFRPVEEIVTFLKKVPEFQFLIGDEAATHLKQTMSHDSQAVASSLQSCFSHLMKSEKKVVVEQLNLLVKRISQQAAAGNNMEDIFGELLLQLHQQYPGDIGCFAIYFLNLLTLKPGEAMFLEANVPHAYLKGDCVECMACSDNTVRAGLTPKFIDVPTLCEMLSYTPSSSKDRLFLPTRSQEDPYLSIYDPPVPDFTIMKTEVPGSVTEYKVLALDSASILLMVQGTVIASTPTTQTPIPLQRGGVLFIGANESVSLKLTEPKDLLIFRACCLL

[4] = inhibitors of firefly luciferase expression or activity, dose response, H4 neuroglioma cells, luminescence (AID 1990); format: functional, cell-based
[5] = luciferase reporter signal reduction – luminescence, H4-C neuroglioblastoma cells, dose response (AID 2458); format: functional, cell-based;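 note: H4 neuroglioblastoma cells stably carrying a luciferase reporter gene fusion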
cells [6] = format: functional, cell-based
[7] = Luminescence Cell-Based Dose Response HTS to Identify Inhibitors of 5'UTR Stem-Loop Driven Prion Protein mRNA Translation in H4 Neuroglioblastoma Cells. [Related pubchem assays: 1827 (Project Summary), 1813 (Primary HTS)]; format: functional
[8] = inhibitors of SNCA 5'UTR-driven reporter translation, confirmation, H4 neuroglioma cells, luminescence (AID 1988); format: functional, cell-based
[9] = inhibitors of SNCA 5'UTR-driven translation, confirmation, luminescence, H4 neuroglioblastoma cells, dose confirmation (AID 2454); format: functional, cell-based;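 note: H4 neuroglioblastoma cells carrying an alpha-synuclein 5'UTR luciferase reporter; potency for inhibition of the luciferase signal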
Protein Tat = Protein Tat (Human immunodeficiency virus type 1 group M subtype B (isolate HXB2)(HIV-1), UniProt P04608); format: functional;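 note: tat binding to TAR RNA read out by fluorescence polarization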
[10] = target: T2, Short transient receptor potential channel 4 (Mus musculus, UniProt Q9QUQ5); experiment: mouse TRPC4 channel inhibitors, dose response, cell-based, HEK293 TRPC4/mu-opioid, Fluo-4 calcium (AID 434942); format: functional;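 note: potency of inhibitors blocking the TRPC4 calcium response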
T2 sequence (Q9QUQ5 whole entry): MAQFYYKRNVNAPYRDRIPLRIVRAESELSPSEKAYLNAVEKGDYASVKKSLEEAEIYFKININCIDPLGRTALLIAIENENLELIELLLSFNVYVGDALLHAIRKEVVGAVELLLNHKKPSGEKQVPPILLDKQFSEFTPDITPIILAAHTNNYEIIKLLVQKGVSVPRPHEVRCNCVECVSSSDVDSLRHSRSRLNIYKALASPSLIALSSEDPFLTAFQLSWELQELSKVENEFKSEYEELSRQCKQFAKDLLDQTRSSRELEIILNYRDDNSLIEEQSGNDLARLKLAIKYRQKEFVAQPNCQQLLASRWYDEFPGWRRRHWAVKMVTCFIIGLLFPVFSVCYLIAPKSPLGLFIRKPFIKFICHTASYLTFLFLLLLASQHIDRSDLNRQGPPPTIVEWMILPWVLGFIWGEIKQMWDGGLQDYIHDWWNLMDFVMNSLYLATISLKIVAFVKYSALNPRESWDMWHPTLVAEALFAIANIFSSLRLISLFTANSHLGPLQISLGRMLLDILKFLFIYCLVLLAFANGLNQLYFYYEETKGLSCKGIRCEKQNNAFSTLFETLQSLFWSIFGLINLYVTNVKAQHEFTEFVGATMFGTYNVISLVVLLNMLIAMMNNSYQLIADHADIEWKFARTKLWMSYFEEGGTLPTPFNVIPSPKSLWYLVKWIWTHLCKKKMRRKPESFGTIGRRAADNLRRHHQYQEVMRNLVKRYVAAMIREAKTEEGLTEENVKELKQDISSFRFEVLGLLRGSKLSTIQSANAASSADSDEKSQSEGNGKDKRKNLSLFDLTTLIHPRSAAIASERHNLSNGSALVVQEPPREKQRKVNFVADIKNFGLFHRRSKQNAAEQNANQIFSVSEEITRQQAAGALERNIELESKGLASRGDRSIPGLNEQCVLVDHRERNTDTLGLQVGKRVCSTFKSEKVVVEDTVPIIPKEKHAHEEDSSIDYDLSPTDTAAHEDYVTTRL

cells [11] = experiment: cells
Large T antigen = Large T antigen (Simian virus 40, UniProt P03070); format: functional, Betapolyomavirus macacae;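 note: Confirmatory-stage PubChem screen for compounds that inhibit SV40 T antigen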
[12] = target: Bifunctional protein GlmU (Mycobacterium tuberculosis, UniProt P9WMN3); experiment: Inhibitors of Mycobacterial Glucosamine-1-phosphate acetyl transferase (GlmU). Secondary screen.; set-up: species or system Mycobacterium tuberculosis H37Rv
[13] = target: Induced myeloid leukemia cell differentiation protein Mcl-1 (Homo sapiens, UniProt Q07820); format: functional
[14] = THP-1 cell cytotoxicity, dose response, cytotoxicity control for non-replicating M. tuberculosis project (AID 489025); format: functional
[15] = THP-1 cell cytotoxicity, dose response, cytotoxicity control for Vif-APOBEC3G degradation inhibitor project, THP-1 cells (AID 1117359); format: functional; conditions: Human immunodeficiency virus 1, THP-1

Sequence of Protein Tat (P04608 whole entry): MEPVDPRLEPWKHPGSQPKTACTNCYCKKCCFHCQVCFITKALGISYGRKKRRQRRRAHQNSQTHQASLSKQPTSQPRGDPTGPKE
Sequence of Bifunctional protein GlmU (P9WMN3 whole entry): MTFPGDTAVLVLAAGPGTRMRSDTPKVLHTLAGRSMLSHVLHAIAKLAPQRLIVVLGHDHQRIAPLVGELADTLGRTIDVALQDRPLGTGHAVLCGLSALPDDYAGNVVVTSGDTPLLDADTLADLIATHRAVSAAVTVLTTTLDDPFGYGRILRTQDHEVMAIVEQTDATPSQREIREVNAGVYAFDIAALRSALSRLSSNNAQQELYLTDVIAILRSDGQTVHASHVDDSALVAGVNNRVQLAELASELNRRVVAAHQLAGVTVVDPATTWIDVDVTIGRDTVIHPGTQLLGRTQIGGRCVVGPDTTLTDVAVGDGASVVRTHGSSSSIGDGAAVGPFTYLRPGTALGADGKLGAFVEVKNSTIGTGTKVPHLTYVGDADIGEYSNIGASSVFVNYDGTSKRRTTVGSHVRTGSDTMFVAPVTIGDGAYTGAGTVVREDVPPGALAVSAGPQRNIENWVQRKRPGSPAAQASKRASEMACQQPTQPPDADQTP
Sequence of Large T antigen (P03070 whole entry): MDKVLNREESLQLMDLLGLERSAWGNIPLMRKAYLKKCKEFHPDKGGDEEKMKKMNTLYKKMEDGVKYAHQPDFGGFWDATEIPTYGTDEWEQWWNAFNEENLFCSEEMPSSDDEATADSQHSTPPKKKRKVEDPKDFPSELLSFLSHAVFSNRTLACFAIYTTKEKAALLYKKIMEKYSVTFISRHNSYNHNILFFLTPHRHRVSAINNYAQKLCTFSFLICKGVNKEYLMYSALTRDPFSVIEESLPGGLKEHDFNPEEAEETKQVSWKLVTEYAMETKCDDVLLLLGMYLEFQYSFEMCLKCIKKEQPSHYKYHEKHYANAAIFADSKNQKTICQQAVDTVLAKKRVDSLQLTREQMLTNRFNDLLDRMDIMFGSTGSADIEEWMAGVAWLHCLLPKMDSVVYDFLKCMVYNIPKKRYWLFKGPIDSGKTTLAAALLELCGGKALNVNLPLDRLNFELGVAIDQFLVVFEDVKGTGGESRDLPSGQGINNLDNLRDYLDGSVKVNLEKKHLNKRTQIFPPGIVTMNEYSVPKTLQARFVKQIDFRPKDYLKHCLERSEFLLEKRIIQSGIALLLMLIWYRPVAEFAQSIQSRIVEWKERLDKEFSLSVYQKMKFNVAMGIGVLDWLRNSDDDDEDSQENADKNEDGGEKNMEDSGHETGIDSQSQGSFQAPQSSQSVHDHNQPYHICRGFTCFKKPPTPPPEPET
Sequence of Induced myeloid leukemia cell differentiation protein Mcl-1 (Q07820 whole entry): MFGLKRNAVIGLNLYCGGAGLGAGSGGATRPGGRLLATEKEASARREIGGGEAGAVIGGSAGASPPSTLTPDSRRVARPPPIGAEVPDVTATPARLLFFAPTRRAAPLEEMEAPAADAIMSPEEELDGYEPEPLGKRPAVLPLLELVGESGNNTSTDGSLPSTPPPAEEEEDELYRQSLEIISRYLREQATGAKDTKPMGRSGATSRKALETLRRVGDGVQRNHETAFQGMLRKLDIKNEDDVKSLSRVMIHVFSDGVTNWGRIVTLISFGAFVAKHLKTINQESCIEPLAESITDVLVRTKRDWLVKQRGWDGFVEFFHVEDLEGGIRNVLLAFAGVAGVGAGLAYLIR

For `COc1ccccc1CNc1ccc(N2CCCCC2)cc1`, which EC50 [1] is on record?
The EC50 was 3.17 µM (active).

What about the EC50 [2] of the same molecule?
Its EC50 is > 60 µM (not active).

What about the IC50 [3] of the same molecule?
The IC50 was > 50 µM (not active).

Which results are given for `CCC(C)Cn1c(O)cc2nn(-c3nc4ccccc4s3)c(=O)c-2c1C` (centres undefined)?
EC50 [4]: < 0.1 µM (active); EC50 [5]: 0.058 µM (active); EC50 (cells [6]): 0.114 µM (active); EC50 [7]: 0.165 µM (active); EC50 [8]: < 0.1 µM (active); EC50 [9]: 0.072 µM (active); IC50 (Protein Tat): > 50 µM (active)

What does the source list for `Clc1cccc(C[n+]2cc(-c3ccccc3)n3c2CCC3)c1`?
EC50 [1]: < 0.1 µM (active); EC50 [2]: > 60 µM (not active); EC50 [10]: 0.944 µM (active); EC50 (cells [11]): 0.007 µM (active)

Which IC50 (Large T antigen) does the source give for `O=C1NC(=S)S/C1=C\c1ccc(SCc2ccco2)o1` here?
Its IC50 is 6.01 µM (active).

What about the IC50 [12] of the same molecule?
Its IC50 is 17.7 µM (active).

What about the IC50 [13] of the same molecule?
The IC50 was 1.53 µM (active).

What about the CC50 [14] of the same molecule?
Its CC50 is > 40 µM (active).

And the CC50 [15]?
Its CC50 is > 40 µM (active).
